# Laboratory results published in PMC10441804, “Insect fungal pathogens secrete a cell wall-associated glucanase that acts to help avoid recognition by the host immune system” (PLOS Pathogens, 2023).
# Molecular target: T1, BbEng1 (Beauveria bassiana, UniProt J4W7P1)
# T1 construct: gene BBA_04753; full precursor 588 aa, 21-residue signal peptide removed; GH16 domain 22-343; expressed in Pichia pastoris GS115 (pPIC9K), purified, detected by anti-His tag
# Assay: glucose release, glucose oxidase method
# Assay type: biochemical
# Details: pH 6.0 (50 mM sodium acetate buffer), 37 °C, 1 h
# T1 sequence (J4W7P1 entry or part of it): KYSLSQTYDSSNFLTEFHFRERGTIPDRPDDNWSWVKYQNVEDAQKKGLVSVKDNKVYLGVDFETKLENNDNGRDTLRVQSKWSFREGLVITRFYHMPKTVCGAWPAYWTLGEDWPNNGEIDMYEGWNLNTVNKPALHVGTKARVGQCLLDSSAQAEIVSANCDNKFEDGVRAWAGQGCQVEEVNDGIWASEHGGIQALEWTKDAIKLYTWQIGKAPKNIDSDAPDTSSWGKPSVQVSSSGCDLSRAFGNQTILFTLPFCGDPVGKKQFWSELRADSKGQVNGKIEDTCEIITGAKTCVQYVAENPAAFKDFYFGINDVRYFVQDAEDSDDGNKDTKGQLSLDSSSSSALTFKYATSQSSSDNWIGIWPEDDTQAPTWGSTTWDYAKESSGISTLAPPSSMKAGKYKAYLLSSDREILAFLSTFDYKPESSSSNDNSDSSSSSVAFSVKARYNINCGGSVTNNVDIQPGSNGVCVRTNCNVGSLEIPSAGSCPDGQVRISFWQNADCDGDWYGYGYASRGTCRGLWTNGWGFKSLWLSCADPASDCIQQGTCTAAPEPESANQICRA
structure (smiles),measurement,value
OC[C@H]1O[C@@H](O[C@@H]2[C@@H](O)[C@H](O[C@@H]3[C@@H](O)[C@H](O[C@H]4[C@H](O)[C@@H](CO)OC(O)[C@@H]4O)O[C@H](CO)[C@H]3O)O[C@H](CO)[C@H]2O)[C@H](O)[C@@H](O)[C@@H]1O (stereo partly shown) [laminaritetraose],"glucose release, glucose oxidase method","Measurement of glucanase activity indicated release of reducing sugar from laminaritetraose (β-1,3-glucose)"
